For 15 molecules, Activity, inhibition and Ki results are on record in ChEMBL document CHEMBL1146327, “Inhibitors of the FEZ-1 metallo-beta-lactamase” (Bioorg Med Chem Lett, 2007).

The structures appear in SMILES notation. Active and inactive are the calls of the source. The calls are words filed in the database; no cut-off is given here.

The target of assay [1] is Metallo-beta-lactamase type 2 (Pseudomonas aeruginosa) (UniProt Q7WYA8). Nature of the assay: Inhibition of metallo-beta-lactamases IMP1 assessed as residual activity at 100 uM.
Metallo-beta-lactamase type 2 (Pseudomonas aeruginosa), sequence (Q7WYA8 whole entry): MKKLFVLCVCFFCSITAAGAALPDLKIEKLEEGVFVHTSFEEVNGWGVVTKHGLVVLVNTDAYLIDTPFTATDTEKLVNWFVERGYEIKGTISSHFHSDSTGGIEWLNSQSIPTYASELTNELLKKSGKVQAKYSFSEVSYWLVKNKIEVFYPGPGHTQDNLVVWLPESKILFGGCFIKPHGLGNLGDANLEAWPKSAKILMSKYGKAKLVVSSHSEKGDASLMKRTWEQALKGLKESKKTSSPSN
The subject of assay [2] is Fluoribacter gormanii. The assay can be described thus: (§1) Inhibition of metallo-beta-lactamases FEZ1. The settings on record: concentration not given here. On the set-up: concentration or dose not given beside the values.
The subject of assay [3] is Fluoribacter gormanii. The assay can be described thus: Inhibition of metallo-beta-lactamases FEZ1 assessed as residual activity at 100 uM.
Assay [4] deals with Metallo-beta-lactamase type 2 (Aeromonas hydrophila) (UniProt P26918). The assay can be described thus: Inhibition of metallo-beta-lactamases CphA assessed as residual activity at 100 uM.
Metallo-beta-lactamase type 2 (Aeromonas hydrophila), sequence (P26918 whole entry): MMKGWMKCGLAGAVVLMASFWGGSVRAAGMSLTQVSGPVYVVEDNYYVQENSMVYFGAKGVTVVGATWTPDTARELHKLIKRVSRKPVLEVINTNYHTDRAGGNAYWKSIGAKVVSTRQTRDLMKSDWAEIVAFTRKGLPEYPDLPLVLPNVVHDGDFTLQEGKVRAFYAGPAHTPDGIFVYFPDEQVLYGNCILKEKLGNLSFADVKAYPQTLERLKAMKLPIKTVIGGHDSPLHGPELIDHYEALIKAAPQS
The nature of assay [5]: Inhibition of metallo-beta-lactamases L1 assessed as residual activity at 100 uM.
Assay [6] concerns Bacillus cereus. Nature of the assay: Inhibition of metallo-beta-lactamases Bc2 assessed as residual activity at 100 uM.
A short description of assay [7]: Inhibition of metallo-beta-lactamases L1. Particulars: for inhibition: concentration not given here.
Assay [8] has as its system Bacillus cereus. The assay can be described thus: Inhibition of metallo-beta-lactamases Bc2. The settings on record: for inhibition: concentration not given here.
The target of assay [9] is Metallo-beta-lactamase type 2 (Pseudomonas aeruginosa) (UniProt Q7WYA8). Nature of the assay: Inhibition of metallo-beta-lactamases IMP1. The settings on record: for inhibition: concentration not given here.
Assay [10] deals with Metallo-beta-lactamase type 2 (Aeromonas hydrophila) (UniProt P26918). The assay can be described thus: Inhibition of metallo-beta-lactamases CphA. Particulars: for inhibition: concentration not given here.
Assay [11] is described as follows: as §1. On the set-up: species or system Fluoribacter gormanii.

As a reminder, the inhibition is the drop in the measured response relative to a control, in per cent. `O=C(NO)c1cc(O)cc(C(=O)N2CCCC2)c1`: the Activity in assay [1] is 85%; in the assay on Fluoribacter gormanii [3], 64%; in assay [4] it was 86%; in [5], 92%; with Bacillus cereus [6], 100%. Besides, in the assay with Fluoribacter gormanii [2], the inhibition was found to be 36%.
With `O=C(NO)c1ccccc1O`, the inhibition in the assay with Fluoribacter gormanii [2] was 45%.
On to `O=C(O)c1cc(O)cc(C(=O)c2ccc(O)cc2)c1`, for which the Activity in assay [1] turned out to be 100%; in the assay on Fluoribacter gormanii [3] it was 67%; in assay [4] it was 83%; in assay [5] it was 107%; in the assay on Bacillus cereus [6], 86%.
`O=C(NO)c1ccc(O)cc1` gave an inhibition in the assay with Fluoribacter gormanii [2] of 53%.
As for `O=C(NO)c1cc(O)cc(C(=O)c2ccc(O)cc2)c1`, the Activity in assay [1] came out at 83%; in the assay on Fluoribacter gormanii [3], 15%; in assay [4], 84%; in assay [5], 102%; with Bacillus cereus [6], 91%.
For the molecule `CNC(=O)c1cc(O)cc(C(=O)NO)c1`, the Activity was determined as 93% in assay [1]; 47% in the assay with Fluoribacter gormanii [3]; 92% in [4]; 96% in [5]; 103% with Bacillus cereus [6]. For the same molecule, the inhibition with Fluoribacter gormanii [2] stood at 53%.
On to `CCN(CC)C(=O)c1cc(O)cc(C(=O)NO)c1`, for which the Activity in [1] amounted to 85%; in the assay with Fluoribacter gormanii [3] it was 66%; in assay [4], 90%; in assay [5], 93%; in the assay on Bacillus cereus [6], 101%. The same molecule returned an inhibition in the assay on Fluoribacter gormanii [2] of 34%.
In the case of `O=C(NO)c1cc(O)cc(C(=O)NCc2ccccc2)c1`, the Activity in assay [1] amounted to 81%; in the assay on Fluoribacter gormanii [3], 46%; in assay [4], 81%; in [5], 95%; with Bacillus cereus [6], 103%. The inhibition in the assay with Fluoribacter gormanii [2] came out at 54%.
With `O=C(O)c1cc(O)cc(C(=O)NO)c1`, the Activity in assay [1] was determined as 67%; in the assay with Fluoribacter gormanii [3], 92%; in assay [4], 79%; in [5], 97%; in the assay with Bacillus cereus [6], 93%.
As to `O=C(O)c1cccc(C(=O)NO)c1`, the inhibition (in assay [7]; in the assay on Bacillus cereus [8]; in the assay on Fluoribacter gormanii [2]; in [9]; in assay [10]) was less than 10% in each case.
A word on the Ki: it is the equilibrium dissociation constant of an inhibitor or competing ligand from its target. For the molecule `O=C(NO)c1cc(O)cc(O)c1`, in assay [11], the Ki is 13.3 µM.
In the case of `O=C(O)CCC(=O)NO`, the inhibition (in [7]; with Bacillus cereus [8]; in the assay with Fluoribacter gormanii [2]; in [9]; in assay [10]) was less than 10% throughout.
Take `O=C(NO)c1ccccc1`: the result (in assay [7]; with Bacillus cereus [8]; in [9]; in assay [10]) was inactive. Also, the inhibition in the assay on Fluoribacter gormanii [2] turned out to be 55%.
Turning to `O=C(NO)c1cccc(O)c1`, the inhibition with Fluoribacter gormanii [2] worked out at 64%. For the same molecule, the Ki in assay [11] worked out at 17.9 µM.
As to `O=C(NO)c1cc(O)cc(C(=O)Nc2ccccc2)c1`, the Activity in assay [1] was determined as 92%; in the assay on Fluoribacter gormanii [3], 42%; in [4], 90%; in assay [5], 103%; in the assay with Bacillus cereus [6], 82%. For the same molecule, the inhibition in the assay on Fluoribacter gormanii [2] was found to be 58%.
